Laboratory results reported in the supplement of paper PMC10307832.

Experiments:
Assay in all cases: relative viability (nuclei count vs DMSO), 5 days (fraction); higher = more cells survive
CUDC-101 + Crizotinib = compound: C#Cc1cccc(Nc2ncnc3cc(OC)c(OCCCCCCC(=O)NO)cc23)c1 [CUDC-101] + C[C@@H](Oc1cc(-c2cnn(C3CCNCC3)c2)cnc1N)c1c(Cl)ccc(F)c1Cl [Crizotinib] (partner 1 µM)
Outline: (§1)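 Relative viability equals treated-well nuclei counts divided by vehicle-well nuclei counts. Counts came from 4× images of lung cancer cell lines grown in 1536-well plates for 5 days after pin-tool dosing on the day after seeding. Dosing used one drug alone or a fixed anchor-drug dose plus five library-drug doses (not always all listed) in √10 steps, and values are medians of duplicate plates.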

[1] = compound: C1=CC=C2C(=C1)N=C(S2)C(C#N)C3=NC(=NC=C3)NCCC4=CN=CC=C4 + CC(=O)c1c(C)c2cnc(Nc3ccc(N4CCNCC4)cn3)nc2n(C2CCCC2)c1=O [Palbociclib] (partner 0.5 µM)
Outline: as §1

[2] = compound: C1=CC=C2C(=C1)N=C(S2)C(C#N)C3=NC(=NC=C3)NCCC4=CN=CC=C4 + Cc1nc(Nc2ncc(C(=O)Nc3c(C)cccc3Cl)s2)cc(N2CCN(CCO)CC2)n1 [Dasatinib] (partner 0.075 µM)
Outline: as §1

Vandetanib + Lapatinib = compound: COc1cc2/c(=N/c3ccc(Br)cc3F)nc[nH]c2cc1OCC1CCN(C)CC1 [Vandetanib] + CS(=O)(=O)CCNCc1ccc(-c2ccc3ncnc(Nc4ccc(OCc5cccc(F)c5)c(Cl)c4)c3c2)o1 [Lapatinib] (partner 2 µM)
Outline: as §1

Cell Line	relative viability (CUDC-101 + Crizotinib; first compound 0.01 µM)	relative viability (CUDC-101 + Crizotinib; first compound 0.03162 µM)	relative viability (CUDC-101 + Crizotinib; first compound 0.1 µM)	relative viability (CUDC-101 + Crizotinib; first compound 0.3162 µM)	relative viability (CUDC-101 + Crizotinib; first compound 1 µM)	relative viability ([1]; first compound 0.005 µM)	relative viability ([1]; first compound 0.01581 µM)	relative viability ([1]; first compound 0.05 µM)	relative viability ([1]; first compound 0.1581 µM)	relative viability ([1]; first compound 0.5 µM)	relative viability ([2]; first compound 0.005 µM)	relative viability ([2]; first compound 0.01581 µM)	relative viability ([2]; first compound 0.05 µM)	relative viability ([2]; first compound 0.1581 µM)	relative viability ([2]; first compound 0.5 µM)	relative viability (Vandetanib + Lapatinib; first compound 0.02 µM)	relative viability (Vandetanib + Lapatinib; first compound 0.06325 µM)	relative viability (Vandetanib + Lapatinib; first compound 0.2 µM)	relative viability (Vandetanib + Lapatinib; first compound 0.6325 µM)	relative viability (Vandetanib + Lapatinib; first compound 2 µM)
NCI-H661	1.07	1.08	0.954	1.03	0.943	0.428	0.433	0.415	0.416	0.411	0.778	0.785	0.817	0.917	0.805	0.547	0.532	0.555	0.607	0.365
HCC-78	0.365	0.298	0.354	0.301	0.103	0.333	0.431	0.506	0.485	0.478	0.386	0.337	0.42	0.609	0.407	1.03	0.739	0.915	0.913	0.738
NCI-H1355	1.06	1.02	1.15	1.07	0.906	0.662	0.431	0.394	0.412	0.364	0.674	0.66	0.699	0.772	0.478	0.984	0.926	0.963	1.05	0.924
NCI-H1993	0.93	0.783	0.766	0.754	0.77	0.651	0.64	0.699	0.708	0.694	0.565	0.607	0.487	0.673	0.536	0.728	0.801	0.663	0.923	0.786
NCI-H1734	0.778	0.699	0.566	0.583	0.397	0.303	0.313	0.307	0.355	0.33		0.476	0.479	0.605	0.401	0.951	1.02	1.11	1.04	0.991
SK-MES-1	1.06	1	1.02	1.04	0.945	0.311	0.292	0.315	0.334	0.288	0.303	0.403	0.394	0.327	0.371	0.474	0.499	0.489	0.471	0.459
COR-L 105	0.724	0.825	0.725	0.433	0.267	0.376	0.408	0.435	0.39	0.345	0.344	0.297	0.34	0.303	0.29	0.322	0.307	0.325	0.366	0.356
EMC-BAC-2	0.726	0.76	0.732	0.571	0.388	0.461	0.533	0.487	0.555	0.486	0.334	0.359	0.364	0.388	0.324	0.906	0.87	0.435	0.866	0.95
NCI-H1915	0.982	0.941	0.889	0.837	0.627		0.532	0.498	0.569	0.523	0.36	0.294	0.28	0.335	0.357	0.905	0.972	1.05	0.93	0.928
NCI-H358	0.558	0.581	0.435	0.497	0.236	0.135	0.139	0.15	0.141	0.119	0.177	0.155	0.162	0.178	0.245	0.38	0.397	0.445	0.419	0.434
CAL-12T	0.67	0.734	0.689	0.701	0.584	0.422	0.327	0.429	0.673	0.41	0.236	0.308	0.341	0.508	0.242	0.704	0.611	0.701	0.726	0.749
NCI-H2085	0.865	0.861	0.772	0.779	0.682	0.428	0.465	0.415	0.472	0.471	0.277	0.216	0.236	0.237	0.219	0.749	0.706	0.837	0.868	0.748
LCLC-97TM1	0.549	0.386	0.443	0.343	0.17	0.236	0.265	0.235	0.251	0.19	0.735	0.923	1.03	0.99	0.792	0.864	1.05	0.909	0.841	0.8
ABC-1	0.941	0.906	0.742	0.44	0.33	0.525		0.597	0.554	0.451	0.634	0.459	0.631	0.573	0.397	1.48	1.29	1.12	1.37	0.961
NCI-H2228	0.46	0.551	0.492	0.411	0.318	0.564	0.886	0.649	1.12	0.597	0.295	0.491	0.442	0.514	0.423	1.32	0.903		1.32	1.23
PC-14	0.935	0.825	0.848	0.76	0.301	0.34	0.479	0.515	0.559	0.441	0.174	0.228	0.211	0.32	0.249	0.295	0.382	0.308	0.273	0.282
